Laboratory results from US5652105A, “Substrate for detection of mammalian 5-C-DNA methyltransferase” (Health Research, Inc., priority 1995, dated 1997).

Columns and labels:
[1] = test system: bacterial DNA methyltransferases; experiment: Methylation by bacterial DNA methyltransferases that require double stranded DNA; type: biochemical
Description: (§1) They are labeled Sense (S), Antisense (AS), Methylated Antisense 1 (M1) and Methylated Antisense 2 (M2). […] This property of M2 provides an approach to accurately monitoring levels of DNA methyltransferase activity in clinically obtained tissue samples that might otherwise be contaminated by bacteria, since bacterial DNA methyltransferase activity would be excluded as a component of this measurement.

murine DNA 5-C-MTase [2] = experiment: Methylation assay: methyl transfer from [methyl-3H]AdoMet to ODNs by DNA methyltransferase from Friend erythroleukemia cell nuclei; type: biochemical; settings: for DNA METHYLASE (FL) SUBSTRATE ACTIVITY, ACTIVITY (CPM): Table 4, single and double stranded constructs, average of 2 expts, background 1813
Description: The phosphoramidite of 5-fluorodeoxycytidine (5FdC) and unmodified 5-methyl deoxycytosine (5MdC) and 5FC-containing ODNs were synthesized and purified as described in Marasco, C. J. et al., J. Org. […] 5MdC phosphoramidite is commercially available. ss ODNs were heated to 90° C. for 10 min and quickly chilled on ice immediately prior to assay. […] For ds ODNs, an equimolar mixture of complementary ODNs was heated to 90° C. for 10 min and slowly cooled to room temperature.
Preparation of Murine DNA 5-C-MTase. The DNA 5-C-MTase used in these studies was the 100,000×g supernatant of a 0.3M NaCl extract of Friend erythroleukemia cell nuclei.
Methylation Assay. Reaction mixtures (50 μl ) in 0.1M imidazole, pH 7.4/20 mM EDTA/0.5 mM dithiothreitol contained 0.5 μg of each ODN indicated, ≈0.6 units of DNA 5-C-MTase (1 unit transfers 1 pmol to A (AS)·A'Mp (M1) per min; see Table 7), and 2.8 μCi (1 Ci=37 GBq) of [methyl-^3 H]AdoMet (AdoMet=S-adenosylmethionine) (8 μM). […] For accuracy, methylation rates <5 pmol/30 min were measured in quadrupled reaction mixtures (200 μl ). After incubation for 30 min at 37° C., ODNs were processed for quantitation of radiolabel as described (20) with 25 μg of salmon sperm DNA added as carrier prior to perchloric acid precipitation.
All assays were performed in duplicate.

murine DNA 5-C-MTase [3] = experiment: as above; type: biochemical; settings: Table 2; enzyme preparation from Friend leukemia cells; 1 μg oligomer; average of 2 expts; background 2691
[4] = test system: bacterial SssI methyltransferase; experiment: DNA methylase substrate activity with bacterial SssI enzyme preparation; type: biochemical; settings: for DNA METHYLASE SUBSTRATE ACTIVITY, ACTIVITY (CPM): Table 3, bacterial SssI enzyme preparation, 0.25 μg oligomer, average of 2 expts, background 1351
Description: as §1
RESULTS ARE AVERAGE OF 2 EXPTS. BACTERIAL SSS1 ENZYME PREPARATION. ASSAYE

Friend leukemia cells = experiment: Growth of Friend leukemia cells treated with phosphorothioate end capped oligomers; type: cell-based, murine; design: dose or concentration left out as unconfirmed; settings: concentrations of oligomers
Description: Having established that specific phosphorothioate end capped ODNs retain activity against DNA methyltransferase, their biological effects were examined in intact Friend cells: the biological effects of oligomer A were compared to oligomer B which has no available substrate sites and thus cannot be an inhibitor of DNA methyltransferase, and of oligomer D with oligomer C which has no FC.
A test was conducted to determine if these oligomers affect growth or differentiation of Friend leukemia cells. If growth effects are due to the toxicity of FC released from oligomers, then oligomer A and oligomer B should have equivalent effects and oligomer C should have no effect on growth.
Oligomer C may have a minor effect if it competes with endogenous DNA for DNA methyltransferase binding in a reversible manner. If, however, growth effects are due to a generalized effect of high oligomer concentration, then all oligomers, A, B and C, should affect growth similarly.

[5] = target: T1, DNA 5-C-methyltransferase (murine, Friend erythroleukemia cells) (Mus musculus, UniProt P13864 P13864:1-1620); experiment: inhibition; methylation rate; 5FC in substrate site inactivates enzyme; settings: protein: extract; tags: 0.3 M NaCl nuclear extract, 100,000 x g supernatant; single approx. 190 kDa species forming covalent complexes
Description: (§2) Methylation Assay. Reaction mixtures (50 µl) in 0.1M imidazole, pH 7.4/20 mM EDTA/0.5 mM dithiothreitol contained 0.5 µg of each ODN indicated, ≈0.6 units of DNA 5-C-MTase (1 unit transfers 1 pmol to A (AS)·A'M_p (M1) per min; see Table 7), and 2.8 µCi (1 Ci=37 GBq) of [methyl-^3H]AdoMet (AdoMet=S-adenosylmethionine) (8 µM). Substrate C sites are in excess in the reaction, and methyl transfer is linear for >45 min. For accuracy, methylation rates <5 pmol/30 min were measured in quadrupled reaction mixtures (200 µl). After incubation for 30 min at 37° C., ODNs were processed for quantitation of radiolabel as described (20) with 25 µg of salmon sperm DNA added as carrier prior to perchloric acid precipitation.
(§3) Substitution of C residues with 5FC was used to determine which sites become substrates for enzymatic methylation in A strands containing 5MeC. It has been shown that both bacterial and mammalian DNA 5-C-MTases form stable covalent linkages with 5FC residues in DNA during the process of methylation. Under conditions of substrate excess, this leads to rapid inactivation of the enzymes. […] Thus, 5MeC in position 5 or 7 activates DNA 5-C-MTase to methylate C18 while failing to activate methylation of a C residue only two bases downstream.

[6] = target: T2, Hha I DNA methyltransferase (UniProt P05102 P05102:1-327); experiment: ss ODNs not substrates at 37 C
T2 sequence: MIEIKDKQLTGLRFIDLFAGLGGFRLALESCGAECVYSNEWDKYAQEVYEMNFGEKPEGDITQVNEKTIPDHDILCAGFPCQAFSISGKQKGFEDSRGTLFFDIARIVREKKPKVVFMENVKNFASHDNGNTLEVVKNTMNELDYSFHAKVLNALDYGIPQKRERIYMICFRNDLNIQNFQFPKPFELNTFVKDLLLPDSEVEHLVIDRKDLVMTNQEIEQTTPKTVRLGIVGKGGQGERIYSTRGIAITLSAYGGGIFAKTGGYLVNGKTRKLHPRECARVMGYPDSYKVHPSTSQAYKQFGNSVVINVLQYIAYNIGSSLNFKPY

[7] = target: T1, DNA 5-C-methyltransferase (murine, …); experiment: methylation rate; settings: protein: extract; tags: 0.3 M NaCl nuclear extract, 100,000 x g supernatant; single approx. 190 kDa species forming covalent complexes
Description: as §2, §3

[8] = target: T1, DNA 5-C-methyltransferase (murine, …); experiment: methylation rate; 128 in Table 10; settings: protein: extract; tags: 0.3 M NaCl nuclear extract, 100,000 x g supernatant; single approx. 190 kDa species forming covalent complexes
Description: as §2

[9] = target: T1, DNA 5-C-methyltransferase (murine, …); experiment: inhibition; methylation rate; 3 in Table 6; potent inhibitor; settings: protein: extract; tags: 0.3 M NaCl nuclear extract, 100,000 x g supernatant; single approx. 190 kDa species forming covalent complexes
[10] = target: T1, DNA 5-C-methyltransferase (murine, …); experiment: methylation rate; 170 in Table 6, 130 in Table 10; settings: protein: extract; tags: 0.3 M NaCl nuclear extract, 100,000 x g supernatant; single approx. 190 kDa species forming covalent complexes
[11] = target: T1, DNA 5-C-methyltransferase (murine, …); experiment: methylation rate; settings: protein: extract; tags: 0.3 M NaCl nuclear extract, 100,000 x g supernatant; single approx. 190 kDa species forming covalent complexes; potential stem-loop
[12] = target: T1, DNA 5-C-methyltransferase (murine, …); experiment: methylation rate; 150 in Table 10; settings: protein: extract; tags: 0.3 M NaCl nuclear extract, 100,000 x g supernatant; single approx. 190 kDa species forming covalent complexes
Description: as §2

[13] = Table 10, ss ODNs with 5 mC and 5 FC substitutions

T1 sequence (P13864 whole entry, one chain of several): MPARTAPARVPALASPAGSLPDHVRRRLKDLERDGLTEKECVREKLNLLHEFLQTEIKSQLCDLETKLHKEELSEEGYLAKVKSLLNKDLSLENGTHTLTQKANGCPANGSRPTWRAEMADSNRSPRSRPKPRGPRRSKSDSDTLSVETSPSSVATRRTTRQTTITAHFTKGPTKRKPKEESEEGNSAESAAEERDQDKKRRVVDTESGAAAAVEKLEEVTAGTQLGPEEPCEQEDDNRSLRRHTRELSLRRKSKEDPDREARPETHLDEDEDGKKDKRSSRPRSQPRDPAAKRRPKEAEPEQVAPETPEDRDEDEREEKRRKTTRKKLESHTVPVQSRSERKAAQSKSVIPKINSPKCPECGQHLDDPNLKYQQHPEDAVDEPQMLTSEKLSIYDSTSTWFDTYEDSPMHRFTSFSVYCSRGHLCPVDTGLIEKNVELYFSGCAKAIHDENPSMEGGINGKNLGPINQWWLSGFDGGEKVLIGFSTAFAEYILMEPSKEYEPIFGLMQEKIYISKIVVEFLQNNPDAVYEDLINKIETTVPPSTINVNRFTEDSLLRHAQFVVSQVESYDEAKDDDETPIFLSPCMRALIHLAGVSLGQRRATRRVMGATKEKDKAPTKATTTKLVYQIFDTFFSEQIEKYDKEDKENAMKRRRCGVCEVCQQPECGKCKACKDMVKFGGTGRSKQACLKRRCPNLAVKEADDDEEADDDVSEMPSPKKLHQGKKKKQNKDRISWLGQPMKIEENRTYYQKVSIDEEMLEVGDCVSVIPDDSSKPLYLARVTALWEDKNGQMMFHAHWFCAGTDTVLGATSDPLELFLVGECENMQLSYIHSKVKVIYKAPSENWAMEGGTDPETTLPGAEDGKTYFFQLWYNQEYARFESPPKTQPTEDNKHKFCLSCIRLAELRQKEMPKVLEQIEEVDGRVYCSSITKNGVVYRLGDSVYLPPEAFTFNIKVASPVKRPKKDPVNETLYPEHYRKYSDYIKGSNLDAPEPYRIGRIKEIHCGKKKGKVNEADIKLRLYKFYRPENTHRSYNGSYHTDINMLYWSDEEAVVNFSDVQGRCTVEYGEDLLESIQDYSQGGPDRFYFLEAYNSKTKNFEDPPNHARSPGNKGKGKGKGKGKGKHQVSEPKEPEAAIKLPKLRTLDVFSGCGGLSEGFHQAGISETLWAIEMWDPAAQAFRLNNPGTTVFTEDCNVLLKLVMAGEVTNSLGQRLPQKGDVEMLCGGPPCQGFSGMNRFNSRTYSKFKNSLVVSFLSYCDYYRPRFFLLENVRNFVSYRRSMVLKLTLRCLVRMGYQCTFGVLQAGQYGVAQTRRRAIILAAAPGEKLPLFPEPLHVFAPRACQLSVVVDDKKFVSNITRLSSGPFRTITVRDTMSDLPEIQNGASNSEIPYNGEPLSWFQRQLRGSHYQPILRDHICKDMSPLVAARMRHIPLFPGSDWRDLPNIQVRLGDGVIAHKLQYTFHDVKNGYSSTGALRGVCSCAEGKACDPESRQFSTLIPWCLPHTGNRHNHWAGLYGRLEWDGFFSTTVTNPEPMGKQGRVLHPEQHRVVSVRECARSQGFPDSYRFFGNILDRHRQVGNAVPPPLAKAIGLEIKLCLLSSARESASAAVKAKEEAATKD

5' ATTGCGNATTNCGGATNCGCGATC 3' (5-methylcytosine at 7, 11, 17, further chemistry not given here) [M2, AS with 5-methylcytosine (N) at 7, 11, 17 (non-CpG sites)]
methylation by most bacterial DNA methyltransferases (in words) [1]: not methylated
substrate activity for mammalian DNA methyltransferase (in words) (murine DNA 5-C-MTase [2]): exceptional substrate activity
DNA METHYLASE (FL) SUBSTRATE ACTIVITY, ACTIVITY (CPM) (murine DNA 5-C-MTase [2]): 157027 CPM
RATE (rate of methylation relative to A) (murine DNA 5-C-MTase [2]; Table 9, ss ODNs with 5MeC substituted for C at the sites given): 130
RATE (rate of methylation relative to A) (murine DNA 5-C-MTase [2]; [13]): 128
DNA METHYLASE SUBSTRATE ACTIVITY, ACTIVITY (CPM) (murine DNA 5-C-MTase [3]): 882284 CPM
substrate activity for bacterial SssI methyltransferase (in words) [4]: only moderate activity as a substrate
DNA METHYLASE SUBSTRATE ACTIVITY, ACTIVITY (CPM) [4]: 51047 CPM

5' ATTGNGCATTCNGGATCNGNGATC 3' (5-methylcytosine at 5, 12, 18, 20, further chemistry not given here) [M1, AS with 5-methylcytosine (N) at 5, 12, 18, 20 (all CpG sites)]
DNA METHYLASE (FL) SUBSTRATE ACTIVITY, ACTIVITY (CPM) (murine DNA 5-C-MTase [2]): 1373 CPM
DNA METHYLASE SUBSTRATE ACTIVITY, ACTIVITY (CPM) (murine DNA 5-C-MTase [3]): 5487 CPM
DNA METHYLASE SUBSTRATE ACTIVITY, ACTIVITY (CPM) [4]: 2339 CPM

ATTGCGNATTCCGGATCNGCGATC (phosphorothioate end caps, 5-MeC 7, 5-FC 18, further chemistry not given here) [Oligomer A, phosphorothioate end capped ASM7F18]
inhibition of methylation by incorporation of FC in position 18 (murine DNA 5-C-MTase [2]; oligomer A compared with capped ASM7, cell free enzyme assay): 97%
inhibition of growth of Friend leukemia cells (in words) (Friend leukemia cells): more potent that B

ATTGCGNATTCCGGATCCGCGATC (phosphorothioate end caps, 5-methylcytosine 7, further chemistry not given here) [Oligomer C, phosphorothioate end capped ASM7]
inhibition of growth of Friend leukemia cells (in words) (Friend leukemia cells): no appreciable effect

3' TAACGCGTAAGGCCTAGGCGCTAG 5' (chemistry not given here; listed 3' to 5') [unmethylated sense single-stranded 24mer ODN]
DNA METHYLASE (FL) SUBSTRATE ACTIVITY, ACTIVITY (CPM) (murine DNA 5-C-MTase [2]): 1598 CPM
DNA METHYLASE SUBSTRATE ACTIVITY, ACTIVITY (CPM) (murine DNA 5-C-MTase [3]): 4843 CPM
DNA METHYLASE SUBSTRATE ACTIVITY, ACTIVITY (CPM) [4]: 175225 CPM

5' ATTGCGCATTCCGGATCCGCGATC 3' (chemistry not given here) [AS, unmethylated antisense single-stranded 24mer ODN]
DNA METHYLASE (FL) SUBSTRATE ACTIVITY, ACTIVITY (CPM) (murine DNA 5-C-MTase [2]): 1936 CPM
RELATIVE ACTIVITY (rate of methylation relative to an equal amount of AS) (murine DNA 5-C-MTase [2]; Table 6, single-stranded ODN): 1
RATE (rate of methylation relative to A) (murine DNA 5-C-MTase [2]; [13]): 1
DNA METHYLASE SUBSTRATE ACTIVITY, ACTIVITY (CPM) (murine DNA 5-C-MTase [3]): 12341 CPM
DNA METHYLASE SUBSTRATE ACTIVITY, ACTIVITY (CPM) [4]: 49282 CPM

ATTGCGCATTCCGGATCCGCGATC (ssDNA, 5mC at 7,11,17; 5-fluoro-C at 18 [5mC at 7,11,17; 5-fluoro-C at 18]) [AMx F18]
binding signal [5]: 2 relative to A

ATTGCGCATTCCGGATCCGCGATC (ssDNA) [AS (A)]
binding result [6]: no binding

ATTGCGCATTCCGGATCCGCGATC (ssDNA, 5mC at 7,11,17; 5-fluoro-C at 12 [5mC at 7,11,17; 5-fluoro-C at 12]) [AMx F12]
binding signal [7]: 165 relative to A

ATTGCGCATTCCGGATCCGCGATC (ssDNA, 5mC at 7,11,17; 5-fluoro-C at 20 [5mC at 7,11,17; 5-fluoro-C at 20]) [AMx F20]
binding signal [7]: 168 relative to A

ATTGCGCATTCCGGATCCGCGATC (ssDNA, 5mC at 7,11,17 [5mC at 7,11,17]) [M2 (AMx)]
binding signal [8]: 130 relative to A

ATTGCGCATTCCGGATCCGCGATC (ssDNA, 5mC at 5; 5-fluoro-C at 20) [ASM5 F20]
binding signal [7]: 152 relative to A

GATCGCGGATCCGGAATGCGCAAT (ssDNA) [S (A')]
binding result [6]: no binding

ATTGCGCATTCCGGATCCGCGATC (ssDNA, 5mC at 7; 5-fluoro-C at 18 [5mC at 7; 5-fluoro-C at 18]) [ASM7 F18]
binding signal [9]: 3.2 relative to A

ATTGCGCATTCCGGATCCGCGATC (ssDNA, 5mC at 7 [5mC at 7]) [ASM7]
binding signal [10]: 140 relative to A

ATTGCGCATTCCGGATCCGCGATC (ssDNA, 5mC at 5; 5-fluoro-C at 18) [ASM5 F18]
binding signal [5]: 1 relative to A

ATTGCGCATTCCGGATCCGCGATC (ssDNA, 5mC at 7,11,17; 5-fluoro-C at 5 [5mC at 7,11,17; 5-fluoro-C at 5]) [AMx F5]
binding signal [7]: 170 relative to A

ATTGCGCATTCCGGATCCGCGATC (ssDNA, 5mC at 7; 5-fluoro-C at 20 [5mC at 7; 5-fluoro-C at 20]) [ASM7 F20]
binding signal [7]: 160 relative to A

ATGACGCACCTCGTTGACGCGCTA (ssDNA, 5mC at 7) [structure 6 ODN]
binding signal [11]: > 300 relative to A

ATTGCGCATTCCGGATCCGCGATC (ssDNA, 5mC at 5) [ASM5]
binding signal [12]: 175 relative to A
